According to patent US11136325B2, “Pyrrolopyrimidine and pyrrolopyridine derivatives” (GALAPAGOS NV, priority 2017, dated 2021):

How the values were obtained:
hASK1 = hASK1 (Homo sapiens (Human), UniProt Q99683); assay: ASK1 biochemical assay (IMAP technology); conditions: 150 μM ATP, 6 nM hASK1
Text: (§1) IMAP® technology provides a homogeneous assay applicable to a wide variety of kinases, phosphatases, and phosphodiesterases without regard for substrate peptide sequence. The assay is a simple mix-and-read procedure allowing accurate determination of enzyme activity. Based on the specific, high-affinity interaction of phospho groups with trivalent metal-containing nanoparticles (beads), IMAP is a generic, non-antibody-based platform to assess kinase, phosphatase, and phosphodiesterase activity. An enzyme reaction is performed using fluorescently labeled substrate. Addition of the IMAP Binding System stops the enzyme reaction and initiates binding of the beads to phosphorylated substrates. Binding of the substrate to the beads, which correlates to enzyme activity, can be detected using either FP or TR-FRET as a readout.
Apoptosis Signal-regulating Kinase (ASK1), also known as MAP3K5, is a member of the mitogen-activated protein kinase kinase kinase (MAP3K) family of kinases. It activates the Jnk and p38 pathways through the MAP2Ks MKK4/7 and MKK3/6 (respectively). This ASK1 IMAP assay uses the following IMAP peptide: RP7140-T2 (5TAMRA-GTFRAAIRRLAARRR-OH, SEQ ID NO: 1). The assay has been configured to run at Km for ATP ([…]) so that it will be sensitive to ATP-competitive inhibitors. The final assay conditions are […], 1 mM DTT, 200 nM peptide and 6 nM ASK1 (total protein). The binding reagent is made up in 100% A at a final dilution of 1:200.
(§2) KIT IMAP FP, Cat. No. R8127; Reaction Buffer-Tween (5× conc.), Molecular Devices, Cat. No. R7436; Diluted 1:5 with H2O and containing DTT (1 mM from 1M stock); Progressive Binding Buffer (PBB) A (5× conc.), Molecular Devices, Cat. No. R7282; Progressive Binding Reagent (PB Reagent), Molecular Devices, Cat. No. R7284; Enzyme Solution (containing 2× Ask1 in Reaction buffer); Substrate Solution (containing 2× peptide substrate in Reaction buffer, and 2×150 μM ATP in Reaction buffer); Bead Buffer (Progressive Binding Buffer A diluted 1:5 with H2O); Bead Solution (Bead Buffer containing 1:200 Progressive Binding Reagent (2×))
100 nL of test compound in 100% DMSO was added to 384-well plates. For a dose response experiment a 1 in 4 dilution of compound (25 μM top final concentration) was used. 3 μL of hASK1 (6 nM), hASK2 (25 nM) or rASK1 (15 nM) was added to each well except in the control well to which 3 μL buffer was added. 3 μL of substrate solution was added to each well and the plates were incubated for 4 h at room temperature. After which time 6 μL of IMAP™ Bead Solution (Progressive Binding Buffer A+PB Reagent; final dilution 1:100) was added to each well and spun for 1 minute at 1000 rpm. The plates were then incubated for 2 h at room temperature after which time the plates were read on a Perkin Elmer EnVision plate reader.
Calculation of IC50 data, curves and QC analysis was made by using Excel tools and GraphPadPrism software, v. 5.03. Briefly, individual concentration-effect curves are generated by plotting the logarithm of the tested concentration of tested compounds (X) vs. corresponding percent inhibition values (Y) using least squares (ordinary) fit. Up to ¼ points from high/low controls are allowed to be excluded, but only if values are >Avg.±1*SD. Fitting equation used for IC50 calculation=log(inhibitor) vs. response−Variable slope (four parameters). Calculated results: Calc 1: mP value for FP measurement=1000*(S−G*P)/(S+G*P) where S=<detector 2 or FP-BodipyTAMRA_Ex531-Em579-optimized(1) channel 2>P=<detector 1 or FP-BodipyTAMRA_Ex531-Em579-optimized(1) channel 1>G=G-factor. Gain=100. Top constrain is used only if top values are not correctly calculated.
Minimum constrained if less than −30% I or greater than 30% I. Maximum constrained if less than 70% I or greater than 130% I. Z′-Factor Target>0.4. Hill Slope range 0.5 to 5.

ASK2 [1] = biological target: T1, ASK2 (Homo sapiens (Human), UniProt O95382); assay: ASK2 biochemical assay (IMAP technology); conditions: 25 nM hASK2
T1 sequence (O95382 whole entry): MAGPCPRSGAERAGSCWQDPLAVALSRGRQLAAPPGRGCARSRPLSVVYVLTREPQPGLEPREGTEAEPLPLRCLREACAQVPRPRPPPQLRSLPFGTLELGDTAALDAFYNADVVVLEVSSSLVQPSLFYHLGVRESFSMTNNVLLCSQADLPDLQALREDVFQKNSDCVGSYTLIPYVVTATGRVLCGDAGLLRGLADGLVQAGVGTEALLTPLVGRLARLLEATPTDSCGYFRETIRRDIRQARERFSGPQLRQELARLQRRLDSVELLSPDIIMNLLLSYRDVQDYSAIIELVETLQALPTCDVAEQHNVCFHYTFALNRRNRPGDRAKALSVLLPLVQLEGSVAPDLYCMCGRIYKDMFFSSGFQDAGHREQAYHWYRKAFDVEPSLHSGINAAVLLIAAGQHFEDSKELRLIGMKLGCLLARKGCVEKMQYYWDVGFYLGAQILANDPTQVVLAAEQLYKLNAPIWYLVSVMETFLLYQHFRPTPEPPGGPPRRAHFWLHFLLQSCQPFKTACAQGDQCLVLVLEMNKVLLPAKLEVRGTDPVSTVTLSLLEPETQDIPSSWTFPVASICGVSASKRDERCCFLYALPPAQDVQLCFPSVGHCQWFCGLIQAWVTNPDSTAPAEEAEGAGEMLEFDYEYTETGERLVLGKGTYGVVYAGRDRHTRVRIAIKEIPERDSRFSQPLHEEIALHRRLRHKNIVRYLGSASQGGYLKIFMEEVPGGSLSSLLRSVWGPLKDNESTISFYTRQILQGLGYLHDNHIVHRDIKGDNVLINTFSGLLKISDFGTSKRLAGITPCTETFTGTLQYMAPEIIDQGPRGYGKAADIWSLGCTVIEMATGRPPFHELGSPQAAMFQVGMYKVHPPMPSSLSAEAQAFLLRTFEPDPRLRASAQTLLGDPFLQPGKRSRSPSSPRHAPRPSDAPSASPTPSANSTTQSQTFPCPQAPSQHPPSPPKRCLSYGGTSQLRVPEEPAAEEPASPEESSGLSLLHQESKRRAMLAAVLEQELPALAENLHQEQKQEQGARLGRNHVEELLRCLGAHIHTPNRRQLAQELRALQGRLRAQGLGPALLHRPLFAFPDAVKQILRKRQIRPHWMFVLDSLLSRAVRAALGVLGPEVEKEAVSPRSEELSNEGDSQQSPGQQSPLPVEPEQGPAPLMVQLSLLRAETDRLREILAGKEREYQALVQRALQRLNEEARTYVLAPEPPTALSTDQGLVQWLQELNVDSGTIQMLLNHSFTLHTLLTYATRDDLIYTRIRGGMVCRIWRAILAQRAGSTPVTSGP
Text: as §1, §2
100 nL of test compound in 100% DMSO was added to 384-well plates. […] The plates were then incubated for 2 h at room temperature after which time the plates were read on a Perkin Elmer EnVision plate reader.
Calculation of IC50 data, curves and QC analysis was made by using Excel tools and GraphPadPrism software, v. […] Calculated results: Calc 1: mP value for FP measurement=1000*(S−G*P)/(S+G*P) where S=<detector 2 or FP-BodipyTAMRA_Ex531-Em579-optimized(1) channel 2>P=<detector 1 or FP-BodipyTAMRA_Ex531-Em579-optimized(1) channel 1>G=G-factor. […] Top constrain is used only if top values are not correctly calculated. […]

ASK2 [2] = biological target: T1, ASK2; assay: ASK2 biochemical assay (AlphaScreen technology, MKK7 phosphorylation); conditions: 150 μM ATP, 400 nM MKK7, 2 nM ASK2
Text: ASK1 and ASK2 biochemical activities were also quantified using AlphaScreen technology which measures the degree of phosphorylation of a protein substrate (MKK7). AlphaScreen technology is based on the binding of a substrate to two types of beads, acceptor and donor. Binding to one bead is through the tag of the substrate protein. Binding of the second bead is through phosphospecific binding of antibody to the phosphosite of the substrate. This forms a sandwich, with the acceptor and donor beads in close proximity. When the donor beads are excited by light in the 680 nm range, a singlet oxygen is released and causes emission of light from the acceptor in the 620 nm range which can be detected using a suitable plate reader.
The phosphorylation site on MKK7 (Ser271/Thr275) is then recognised by a phosphospecific antibody. The phosphospecific antibody is bound to the AlphaScreen acceptor beads through a Protein-A interaction. Phosphorylation of MKK7 by ASK1 or ASK2 subsequently facilitates the bringing together of the donor and acceptor beads into close proximity whereupon the transfer of the singlet oxygen leads to the generation of the AlphaScreen signal.
The assay was configured to run using the following conditions (final concentrations): 150 μM ATP; 400 nM MKK7; 0.8 nM ASK1 and 2 nM ASK2.
100 nL of test compound (starting concentration 6 μM, 11 concentrations with 3 fold serial dilutions) in 100% DMSO was added to low volume 384 well plates. 2.5 μl of ASK1 or ASK2 was added to each well except in the control wells to which 2.5 μl buffer was added. 2.5 μl of MKK7 solution was added to all wells. The plate was incubated for 60 minutes at room temperature. Protein-A acceptor beads and phospho-specific antibody were incubated for 30 minutes and then 2.5 μl of Protein-A acceptor beads/phospho-specific antibody mix (2.5 μg/ml acceptor beads final concentration and 1/800 antibody final dilution) was added to each well. […] The plate was incubated for a further 60 minutes at room temperature, following which the plate was read on a Perkin Elmer Enspire plate reader. […]

hASK1, sequence (Q99683 whole entry): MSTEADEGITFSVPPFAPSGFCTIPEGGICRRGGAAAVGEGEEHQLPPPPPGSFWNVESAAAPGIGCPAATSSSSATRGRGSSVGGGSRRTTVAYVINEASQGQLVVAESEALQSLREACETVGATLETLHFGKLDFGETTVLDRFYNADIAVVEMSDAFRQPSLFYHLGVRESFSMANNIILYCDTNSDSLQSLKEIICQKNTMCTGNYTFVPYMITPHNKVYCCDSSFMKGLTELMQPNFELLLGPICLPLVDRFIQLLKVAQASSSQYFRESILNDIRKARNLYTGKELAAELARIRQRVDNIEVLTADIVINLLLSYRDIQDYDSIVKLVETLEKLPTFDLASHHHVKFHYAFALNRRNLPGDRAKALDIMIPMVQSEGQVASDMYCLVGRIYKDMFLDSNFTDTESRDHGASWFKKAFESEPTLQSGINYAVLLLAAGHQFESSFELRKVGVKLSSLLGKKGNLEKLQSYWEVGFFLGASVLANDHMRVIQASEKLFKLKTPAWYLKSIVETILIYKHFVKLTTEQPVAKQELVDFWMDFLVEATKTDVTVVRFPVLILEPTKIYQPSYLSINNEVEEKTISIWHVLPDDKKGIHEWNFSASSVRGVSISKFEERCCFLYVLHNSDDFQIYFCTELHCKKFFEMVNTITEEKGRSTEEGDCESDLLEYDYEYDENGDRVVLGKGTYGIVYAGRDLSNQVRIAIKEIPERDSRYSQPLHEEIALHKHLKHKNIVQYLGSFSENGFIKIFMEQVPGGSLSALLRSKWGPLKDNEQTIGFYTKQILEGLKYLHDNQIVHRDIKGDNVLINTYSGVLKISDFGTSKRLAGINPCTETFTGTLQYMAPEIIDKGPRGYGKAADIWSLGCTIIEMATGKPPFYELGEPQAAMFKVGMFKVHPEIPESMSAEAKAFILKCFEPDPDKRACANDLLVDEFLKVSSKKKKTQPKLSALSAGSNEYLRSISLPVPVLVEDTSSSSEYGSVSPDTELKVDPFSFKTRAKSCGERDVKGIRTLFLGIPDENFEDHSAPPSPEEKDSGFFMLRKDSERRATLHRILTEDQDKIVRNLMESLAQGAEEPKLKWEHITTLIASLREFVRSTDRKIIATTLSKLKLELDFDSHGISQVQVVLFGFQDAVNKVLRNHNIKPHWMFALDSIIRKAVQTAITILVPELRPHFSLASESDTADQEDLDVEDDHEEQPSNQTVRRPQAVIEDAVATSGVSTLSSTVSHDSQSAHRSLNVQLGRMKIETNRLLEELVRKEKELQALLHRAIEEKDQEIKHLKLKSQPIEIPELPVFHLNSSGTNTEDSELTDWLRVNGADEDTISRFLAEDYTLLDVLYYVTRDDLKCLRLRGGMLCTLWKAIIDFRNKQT

Row | SMILES | Inhibition (pIC50) ASK1 (hASK1) | Inhibition (pIC50) ASK2 (ASK2 [1]) | Inhibition (pIC50) ASK2 (ASK2 [2])
1 | Cc1cnc(N)cc1C(=O)NC1CCN(c2ncnc3[nH]cc(C)c23)CC1 [Compound 2, 2-amino-5-methyl-N-[1-(5-methyl-7H-pyrrolo[2,3-d]pyrimidin-4-yl)-4-piperidyl]pyridine-4-carboxamide] | 8.17 | 8.08 | –
2 | Nc1cc(C(=O)NC2CCN(c3ncnc4[nH]cc(Cl)c34)CC2)c(F)cn1 [Compound 5, 2-amino-N-[1-(5-chloro-7H-pyrrolo[2,3-d]pyrimidin-4-yl)-4-piperidyl]-5-fluoro-pyridine-4-carboxamide] | 8.43/— | – | –
3 | Nc1cc(C(=O)NC2CCN(c3ncnc4[nH]cc(Cl)c34)CC2)ccn1 [Compound 4, 2-amino-N-[1-(5-chloro-7H-pyrrolo[2,3-d]pyrimidin-4-yl)-4-piperidyl]pyridine-4-carboxamide] | 8.46 | 8.19 | 8.2
4 | Cc1c[nH]c2ncnc(N3CCC(NC(=O)c4cc(N)ncc4F)CC3)c12 [Compound 1, 2-amino-5-fluoro-N-[1-(5-methyl-7H-pyrrolo[2,3-d]pyrimidin-4-yl)-4-piperidyl]pyridine-4-carboxamide] | 8.24 | 7.96 | 7.71
5 | Nc1cc(C(=O)NC2CCN(c3ccnc4[nH]cc(Cl)c34)CC2)c(F)cn1 [Compound 7, 2-amino-N-[1-(3-chloro-1H-pyrrolo[2,3-b]pyridin-4-yl)-4-piperidyl]-5-fluoro-pyridine-4-carboxamide] | 8.24/— | – | –
6 | Cc1c[nH]c2ncc(C#N)c(N3CCC(NC(=O)c4cc(N)ncc4F)CC3)c12 [Compound 6, 2-amino-N-[1-(5-cyano-3-methyl-1H-pyrrolo[2,3-b]pyridin-4-yl)-4-piperidyl]-5-fluoro-pyridine-4-carboxamide] | 8.98/— | – | –
7 | Cc1c[nH]c2ncnc(N3CCC(NC(=O)c4cc(N)ncc4Cl)CC3)c12 [Compound 3, 2-amino-5-chloro-N-[1-(5-methyl-7H-pyrrolo[2,3-d]pyrimidin-4-yl)-4-piperidyl]-pyridine-4-carboxamide] | 8.05/— | – | 7.8
